Legend:
Experiment in all cases: viability relative to DMSO control (fraction); higher = less drug effect (more viable cells)
Conditions in all cases: 48 h
[1] = system: primary CLL patient cells (S043)
Outline: (§1)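 Cells were incubated for 48 h at 37 °C and 5% CO2 in RPMI-1640 with penicillin/streptomycin, L-glutamine and human serum, at 4 × 10^4 cells per well in 384-well plates with compounds pre-plated at five concentrations, one well each. These were primary mononuclear tumour cells, fresh or cryopreserved, Ficoll-isolated from blood or bone marrow or obtained from processed lymph node. Viability values are CellTiter-Glo luminescence relative to the median of 16 inner DMSO wells.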

[2] = system: primary DLBCL patient cells (S076)
Outline: as §1

[3] = system: primary AML patient cells (S021)
Outline: as §1

[4] = system: primary AML patient cells (S012)
Outline: as §1

[5] = system: primary AML patient cells (S011)
Outline: as §1

[6] = system: primary DLBCL patient cells (S049)
Outline: as §1

[7] = system: primary AML patient cells (S019)
Outline: as §1

[8] = system: primary AML patient cells (S025)
Outline: as §1

[9] = system: primary AML patient cells (S081)
Outline: as §1

[10] = system: primary AML patient cells (S017)
Outline: as §1

[11] = system: primary AML patient cells (S006)
Outline: as §1

[12] = system: primary AML patient cells (S091)
Outline: as §1

[13] = system: primary AML patient cells (S085)
Outline: as §1

[14] = system: primary AML patient cells (S089)
Outline: as §1

[15] = system: primary AML patient cells (S002)
Outline: as §1

[16] = system: primary AML patient cells (S037)
Outline: as §1

[17] = system: primary T-NHL patient cells (S058)
Outline: as §1

`C/C=C1\NC(=O)[C@H]2CSSCC/C=C/[C@H](CC(=O)N[C@H](C(C)C)C(=O)N2)OC(=O)[C@H](C(C)C)NC1=O` [Romidepsin] was tested, and the viability ([1]; 0.00032 µM) was 0.92, the viability ([1]; 0.0016 µM) was 0.83 and the viability ([1]; 0.008 µM) was 0.369. The viability ([1]; 0.04 µM) was 0.0933, the viability ([1]; 0.2 µM) was 0.084 and the viability ([2]; 0.00032 µM) was 1.06. For the same molecule, the viability ([2]; 0.0016 µM) was 0.614, the viability ([2]; 0.008 µM) was 0.264 and the viability ([2]; 0.04 µM) was 0.188. The viability ([2]; 0.2 µM) was 0.184, the viability ([3]; 0.00032 µM) was 0.88 and the viability ([3]; 0.0016 µM) was 0.789. The viability ([3]; 0.008 µM) was 0.353, the viability ([3]; 0.04 µM) was 0.269 and the viability ([3]; 0.2 µM) was 0.222. For the same molecule, the viability ([4]; 0.00032 µM) was 1.1, the viability ([4]; 0.0016 µM) was 1.01 and the viability ([4]; 0.008 µM) was 0.722. It also gave a viability ([4]; 0.04 µM) of 0.0806, a viability ([4]; 0.2 µM) of 0.0665 and a viability ([5]; 0.00032 µM) of 0.935. For the same molecule, the viability ([5]; 0.0016 µM) was 0.727, the viability ([5]; 0.008 µM) was 0.507 and the viability ([5]; 0.04 µM) was 0.373. The viability ([5]; 0.2 µM) was 0.345, the viability ([6]; 0.00032 µM) was 0.886 and the viability ([6]; 0.0016 µM) was 0.0597. The viability ([6]; 0.008 µM) was 0.026, the viability ([6]; 0.04 µM) was 0.0248 and the viability ([6]; 0.2 µM) was 0.0226. The viability ([7]; 0.00032 µM) was 1, the viability ([7]; 0.0016 µM) was 0.996 and the viability ([7]; 0.008 µM) was 0.52. It also gave a viability ([7]; 0.04 µM) of 0.417, a viability ([7]; 0.2 µM) of 0.434 and a viability ([8]; 0.00032 µM) of 0.889. For the same molecule, the viability ([8]; 0.0016 µM) was 0.812, the viability ([8]; 0.008 µM) was 0.299 and the viability ([8]; 0.04 µM) was 0.381. For the same molecule, the viability ([8]; 0.2 µM) was 0.441, the viability ([9]; 0.00032 µM) was 0.976 and the viability ([9]; 0.0016 µM) was 0.947. The viability ([9]; 0.008 µM) was 0.283, the viability ([9]; 0.04 µM) was 0.0359 and the viability ([9]; 0.2 µM) was 0.0368. It also gave a viability ([10]; 0.00032 µM) of 1.02, a viability ([10]; 0.0016 µM) of 0.866 and a viability ([10]; 0.008 µM) of 0.29. The viability ([10]; 0.04 µM) was 0.302, the viability ([10]; 0.2 µM) was 0.332 and the viability ([11]; 0.00032 µM) was 1. For the same molecule, the viability ([11]; 0.0016 µM) was 0.911, the viability ([11]; 0.008 µM) was 0.477 and the viability ([11]; 0.04 µM) was 0.127. For the same molecule, the viability ([11]; 0.2 µM) was 0.0886, the viability ([12]; 0.00032 µM) was 0.803 and the viability ([12]; 0.0016 µM) was 0.715. For the same molecule, the viability ([12]; 0.008 µM) was 0.169, the viability ([12]; 0.04 µM) was 0.116 and the viability ([12]; 0.2 µM) was 0.117. It also gave a viability ([13]; 0.00032 µM) of 1.04, a viability ([13]; 0.0016 µM) of 0.817 and a viability ([13]; 0.008 µM) of 0.103. The viability ([13]; 0.04 µM) was 0.0584, the viability ([13]; 0.2 µM) was 0.0681 and the viability ([14]; 0.00032 µM) was 0.932. The viability ([14]; 0.0016 µM) was 0.979, the viability ([14]; 0.008 µM) was 0.302 and the viability ([14]; 0.04 µM) was 0.0361. For the same molecule, the viability ([14]; 0.2 µM) was 0.0536, the viability ([15]; 0.00032 µM) was 1.12 and the viability ([15]; 0.0016 µM) was 0.73. It also gave a viability ([15]; 0.008 µM) of 0.283, a viability ([15]; 0.04 µM) of 0.265 and a viability ([15]; 0.2 µM) of 0.287. For the same molecule, the viability ([16]; 0.00032 µM) was 1.06, the viability ([16]; 0.0016 µM) was 0.911 and the viability ([16]; 0.008 µM) was 0.554. The viability ([16]; 0.04 µM) was 0.516, the viability ([16]; 0.2 µM) was 0.508 and the viability ([17]; 0.00032 µM) was 0.992. For the same molecule, the viability ([17]; 0.0016 µM) was 0.651, the viability ([17]; 0.008 µM) was 0.365 and the viability ([17]; 0.04 µM) was 0.295. It also gave a viability ([17]; 0.2 µM) of 0.315.

From the supplement of paper PMC10733146
